From patent US8575357B2, “Substituted (thiazolyl-carbonyl)imidazolidinones and use thereof” (AiCuris GmbH & Co. KG, priority 2009, dated 2013)

What was measured:
[1] = test system: HIV-1LAI; assay: H9 assay with wild-type HIV-1 (HIV-1LAI supernatant infection, AlamarBlue); type: cell-based; settings: Human immunodeficiency virus 1, 120 h, H9 cells, 10% FCS, 5 days
Experimental: For the mixture for a 96-well MTP, 3 million PBLs are pelleted, suspended in 1 ml of RPMI 1640 medium/10% FCS and incubated together with a suitable amount of HIV-1LAI (NIH AIDS Research & Reference Reagent Program, Germantown, USA) at 37° C. for 2 hours (pellet infection). Unadsorbed viruses are subsequently washed out with PBS, and the infected cells are pelleted again and suspended in 18 ml of RPMI 1640 medium/10% FCS/interleukin-2 (40 U/ml). 180 μl thereof are pipetted into each well of a white 96-well MTP with 20 μl of test substance in suitable dilution. Alternatively, after preparation of the substance dilutions in the MTP, the HIV is pipetted in together with the cells and is not washed out again (supernatant infection). In order to avoid edge effects, the wells at the edge of the MTP are not used for substance dilutions. The second vertical row of the MTP contains only infected cells (virus control) and the eleventh vertical row only uninfected cells (cell control), in each case in RPMI 1640 medium/10% FCS/interleukin-2 (40 U/ml). The other wells of the MTP contain the compounds of the invention in various concentrations starting from the third vertical row, from which the test substances are diluted in 3-fold steps up to the tenth vertical row 3^7-fold. The test substances are dissolved in DMSO, whereby the final DMSO concentration in the test mixture is 1%. The test mixtures are incubated at 37° C./5% CO2. After 5 and 7 days, 50 μl of cell-free supernatant are removed from each well to determine the amount of p24 present by means of a p24 ELISA (HIV-1 p24^CA Antigen Capture Assay Kit, NCI-Frederick Cancer Research and Development Center, Frederick, USA). From the resulting values of the photometric evaluation (450/620 nm) the EC50 values of the test substances are determined as the concentration at which the amount of p24 is 50% of the untreated infected cells.
Alternatively, H9 cells (ATCC, Wesel, Germany) are employed instead of PBLs for testing the test substances. H9 cells are incubated in RPMI 1640 medium with 2% or 10% FCS as a HIV-1LAI supernatant infection at 37° C./5% CO2, (20 μl of substance dilution and 80 μl of cells/virus per well) in accordance with the pattern described above for 5 days. Subsequently, 10 μl of AlamarBlue (Invitrogen, Karlsruhe, Germany) are added to each well, and the MTPs are incubated at 37° C. for 3 hours before the fluorimetric evaluation takes place (544/590 nm). The resulting values are about 40 000 for the untreated uninfected cells and about 7000 for the untreated infected cells. In the low concentration range, the EC50 values of the test substances are determined as the concentration at which the fluorescence is 50% of the untreated uninfected cells (in each case subtracting the values of the untreated infected cells). In addition, in the high concentration range, the CC50 values of the test substances are determined as the concentration at which the fluorescence is 50% of the untreated uninfected cells (in each case subtracting the values of the untreated infected cells).

[2] = test system: HIV-1NL4-3 reporter virus, wild-type; assay: Light assay with wild-type HI reporter virus in MT4 7F2 cells; type: cell-based; settings: Human immunodeficiency virus 1, 120 h, read-out: EC50 (nM) MT4 7F2 cells HIV-1NL4-M3 wt 2% FCS
Experimental: (§1) For the mixture for a 96-well MTP, 3 million MT4 7F2 cells are pelleted, suspended in 1 ml of RPMI 1640 medium without phenol red (Invitrogen, Karlsruhe, Germany)/10% FCS/10% AIM-V (Invitrogen, Karlsruhe, Germany) and incubated together with a suitable amount of the corresponding HIV-1NL4-3 reporter virus at 37° C. for 2 hours (pellet infection). Unadsorbed viruses are subsequently washed out with PBS, and the infected cells are pelleted again and suspended in 8 ml of RPMI 1640 medium without phenol red/2% or 10% FCS/10% AIM-V. 80 μl thereof are pipetted into each well of a white 96-well MTP with 20 μl of test substance in suitable dilution. To avoid edge effects, the wells on the edge of the MTP are not used for substance dilutions. The second vertical row of the MTP contains only infected cells (virus control) and the eleventh vertical row only uninfected cells (cell control), in each case in RPMI 1640 medium without phenol red/2% or 10% FCS/10% AIM-V. The other wells of the MTP contain the compounds of the invention in various concentrations starting from the third vertical row, from which the test substances are diluted in 3-fold steps up to the tenth vertical row 3^7-fold. The test substances are dissolved in DMSO, whereby the final DMSO concentration in the test mixture is 1%. The test mixtures are incubated at 37° C./5% CO2 for five days and, after the addition of 15 μl of Lu164 substrate (5 mg/ml coelenterazine dissolved in 30 μM glutathione/DMSO, 100 mM NaCl, 1M MES, 100 mM glutathione), evaluated by luminometry. The resulting values are in the region of 1 000 000 RLUs (relative light units) for the virus control and 300 to 400 RLUs for the cell control. The EC50 values of the test substances are determined as the concentration at which the virus replication measured in RLUs is 50% of the untreated infected cells.

[3] = biological target: T1, reverse transcriptase (Human immunodeficiency virus type 1 group M subtype B, UniProt P04585); assay: Biochemical reverse transcriptase assay (Reverse Transcriptase Assay, colorimetric, Roche); settings: colorimetric RT assay, final DMSO 1%; read-out: IC50 (nM) RT assay
T1 construct: negative control (mixture without reverse transcriptase); purchased Roche Diagnostics GmbH, Mannheim, Germany
Experimental: The “Reverse Transcriptase Assay, colorimetric” (Roche Diagnostics GmbH, Mannheim, Germany) is used in accordance with the manufacturer's information. The test substances are dissolved in DMSO and are used in the test diluted in 5-fold steps (final DMSO concentration 1%). The resulting values of the photometric evaluation (405/492 nm) are less than 0.1 for the negative control (mixture without reverse transcriptase) and are in the region of 1.5 for the positive control (mixture without test substance). The IC50 values of the test substances are determined as the concentration of the test substance dilution at which the measured optical density is 50% of the positive control.

[4] = test system: HIV-1NL4-3 reporter virus, reverse transcriptase mutations K103N-Y181C; assay: Light assay with inhibitor-resistant HI reporter virus in MT4 7F2 cells; type: cell-based; settings: Human immunodeficiency virus 1, 120 h, read-out: EC50 (nM) MT4 7F2 cells HIV-1NL4-M3 K103N-Y181C 2% FCS
Experimental: as §1

Compound	EC50 [1] [nM]	EC50 [2] [nM]	IC50 [3] [nM]	EC50 [4] [nM]
O=C1CN(C(=O)c2nc(-c3ccc(F)c(Cl)c3)c(-c3cc(F)cc(Cl)c3)s2)CN1 [Example 1, 1-{[4-(3-Chloro-4-fluorophenyl)-5-(3-chloro-5-fluorophenyl)-1,3-thiazole-2-yl]carbonyl}imidazolidin-4-one]	14	2	61	55
O=C1CN(C(=O)c2nc(-c3ccc(F)c(Cl)c3)c(-c3cccc(Cl)c3)s2)CN1 [Example 2, 1-{[4-(3-Chloro-4-fluorophenyl)-5-(3-chlorophenyl)-1,3-thiazole-2-yl]carbonyl}imidazolidin-4-one]	30	4	17	91
O=C1CN(C(=O)c2nc(-c3cccc(Cl)c3)c(-c3ccc(F)c(Cl)c3)s2)CN1 [Example 4, 1-{[5-(3-Chloro-4-fluorophenyl)-4-(3-chlorophenyl)-1,3-thiazole-2-yl]carbonyl}imidazolidin-4-one]	80	10	–	143
N#Cc1cc(-c2sc(C(=O)N3CNC(=O)C3)nc2-c2cccc(Cl)c2)ccc1F [Example 5, 5-{4-(3-Chlorophenyl)-2-[(4-oxoimidazolidin-1-yl)carbonyl]-1,3-thiazole-5-yl}-2-fluorobenzenecarbonitrile]	80	38	–	228
O=C1CN(C(=O)c2nc(-c3cc(F)cc(Cl)c3)c(-c3cccc(Cl)c3)s2)CN1 [Example 6, 1-{[4-(3-Chloro-5-fluorophenyl)-5-(3-chlorophenyl)-1,3-thiazole-2-yl]carbonyl}imidazolidin-4-one]	95	58	–	282
N#Cc1cccc(-c2sc(C(=O)N3CNC(=O)C3)nc2-c2cccc(Cl)c2)c1 [Example 7, 3-{4-(3-Chlorophenyl)-2-[(4-oxoimidazolidin-1-yl)carbonyl]-1,3-thiazole-5-yl}benzenecarbonitrile]	20	36	–	303
O=C1CN(C(=O)c2nc(-c3cccc(Cl)c3)c(-c3cccc(C(F)(F)F)c3)s2)CN1 [Example 8, 1-({4-(3-Chlorophenyl)-5-[3-(trifluoromethyl)phenyl]-1,3-thiazole-2-yl}carbonyl)imidazolidin-4-one]	–	46	–	142
N#Cc1cc(-c2sc(C(=O)N3CNC(=O)C3)nc2-c2ccc(F)c(Cl)c2)ccc1F [Example 9, 5-{4-(3-Chloro-4-fluorophenyl)-2-[(4-oxoimidazolidin-1-yl)carbonyl]-1,3-thiazole-5-yl}-2-fluorobenzenecarbonitrile]	40	35	–	118
N#Cc1cccc(-c2sc(C(=O)N3CNC(=O)C3)nc2-c2ccc(F)c(Cl)c2)c1 [Example 10]	5	4	–	70
N#Cc1cc(F)cc(-c2nc(C(=O)N3CNC(=O)C3)sc2-c2cc(F)cc(Cl)c2)c1 [Example 12, 3-{5-(3-Chloro-5-fluorophenyl)-2-[(4-oxoimidazolidin-1-yl)carbonyl]-1,3-thiazole-4-yl}fluorobenzenecarbonitrile]	80	29	–	119
N#Cc1cc(-c2nc(C(=O)N3CNC(=O)C3)sc2-c2cc(F)cc(Cl)c2)ccc1F [Example 13, 5-{5-(3-Chloro-5-fluorophenyl)-2-[(4-oxoimidazolidin-1-yl)carbonyl]-1,3-thiazole-4-yl}-2-fluorobenzenecarbonitrile]	2	0.6	–	43
N#Cc1cc(-c2nc(C(=O)N3CNC(=O)C3)sc2-c2cccc(Cl)c2)ccc1F [Example 14, 5-{5-(3-Chlorophenyl)-2-[(4-oxoimidazolidin-1-yl)carbonyl]-1,3-thiazole-4-yl}-2-fluorobenzenecarbonitrile]	4	1	–	49
N#Cc1cc(F)cc(-c2sc(C(=O)N3CNC(=O)C3)nc2-c2ccc(F)c(C#N)c2)c1 [Example 15, 5-{5-(3-Cyano-5-fluorophenyl)-2-[(4-oxoimidazolidin-1-yl)carbonyl]-1,3-thiazole-4-yl}-2-fluorobenzenecarbonitrile]	2	9	–	87
N#Cc1cccc(-c2sc(C(=O)N3CNC(=O)C3)nc2-c2ccc(F)c(C#N)c2)c1 [Example 16, 5-{5-(3-Cyanophenyl)-2-[(4-oxoimidazolidin-1-yl)carbonyl]-1,3-thiazole-4-yl}-2-fluorobenzenecarbonitrile]	2	15	–	123
N#Cc1cccc(-c2nc(C(=O)N3CNC(=O)C3)sc2-c2cccc(Cl)c2)c1 [Example 17]	2	0.5	–	64
N#Cc1cccc(-c2nc(C(=O)N3CNC(=O)C3)sc2-c2cc(F)cc(Cl)c2)c1 [Example 18, 3-{5-(3-Chloro-5-fluorophenyl)-2-[(4-oxoimidazolidin-1-yl)carbonyl]-1,3-thiazole-4-yl}benzenecarbonitrile]	1	0.4	–	38
N#Cc1cccc(-c2nc(C(=O)N3CNC(=O)C3)sc2-c2cccc(C#N)c2)c1 [Example 19, 3,3′-{2-[(4-Oxoimidazolidin-1-yl)carbonyl]-1,3-thiazole-4,5-diyl}benzenecarbonitrile]	1	2	–	94
N#Cc1cc(F)cc(-c2sc(C(=O)N3CNC(=O)C3)nc2-c2cccc(Cl)c2)c1 [Example 21, 3-{4-(3-Chlorophenyl)-2-[(4-oxoimidazolidin-1-yl)carbonyl]-1,3-thiazole-5-yl}-5-fluorobenzenecarbonitrile]	2	2	–	79
